# Patent publication US7776892B2, “Fungicidal composition comprising a pyridylethylbenzamide derivative and a compound capable of inhibiting the spores germination or mycelium growth by acting on different metabolic routes” (Bayer Cropscience S.A., priority 2004, dated 2010)
# Counter-ions that a name gives are not always drawn.
# How the values were obtained:
# Type in all cases: in vivo
# Botrytis cinerea [1] = test: Example 7: efficacy against Botrytis cinerea on gherkin plants, Compound 1 and benalaxyl; conditions: grading 5 to 7 days after contamination
# Method: (§1) The active ingredients tested are prepared by potter homogenisation in a mixture of acetone/tween/water. This suspension is then diluted with water to obtain the desired active material concentration.
# (§2) Gherkin plants (Petit vert de Paris variety) in starter cups, sown on a 50/50 peat soil-pozzolana substrate and grown at 18-20° C., are treated at the cotyledon Z11 stage by spraying with the aqueous suspension described above. Plants, used as controls, are treated with an aqueous solution not containing the active material.
# (§3) After 24 hours, the plants are contaminated by depositing drops of an aqueous suspension of Botrytis cinerea spores (150,000 spores per ml) on upper surface of the leaves. The spores are collected from a 15-day-old culture and are suspended in a nutrient solution composed of: • 20 g/L of gelatine • 50 g/L of cane sugar • 2 g/L of NH4NO3 • 1 g/L of KH2PO4
# (§4) The contaminated gherkin plants are settled for 5/7 days in a climatic room at 15-11° C. (day/night) and at 80% relative humidity. Grading (% of efficacy) is carried out 5 to 7 days after the contamination, in comparison with the control plants.
# Botrytis cinerea [2] = test: Example 4: efficacy against Botrytis cinerea on gherkin plants, Compound 1 and folpet; conditions: grading 5 to 7 days after contamination
# Method: as §2, with “The formulated compounds are diluted with water to obtain the desired active material concentration. Gherkin” for “Gherkin”
# as §3, §4
# Puccinia recondita = test: Example 3: efficacy against Puccinia recondita on wheat plants, Compound 1 and captan; conditions: 240 h, grading 10 days after contamination
# Method: as §1
# Wheat plants (Scipion variety) in starter cups, sown on 50/50 peat soil-pozzolana substrate and grown at 12° C., are treated at the 1-leaf stage (10 cm tall) by spraying with the aqueous suspension described above.
# (§5) Plants, used as controls, are treated with an aqueous solution not containing the active material.
# After 24 hours, the plants are contaminated by spraying the leaves with an aqueous suspension of Puccinia recondita spores (100,000 spores per ml). The spores are collected from a 10-day-old contaminated wheat and are suspended in water containing 2.5 ml/l of tween 80 10%. The contaminated wheat plants are incubated for 24 hours at 20° C. and at 100% relative humidity, and then for 10 days at 20° C. and at 70% relative humidity. Grading is carried out 10 days after the contamination, in comparison with the control plants.
# Sphaerotheca fuliginea [3] = test: Example 13: efficacy against Sphaerotheca fuliginea on gherkin plants, Compound 1 and iprovalicarb; conditions: grading 21 days after contamination
# Method: Gherkin plants (Vert petit de Paris variety) in starter cups, sown on a 50/50 peat soil-pozzolana substrate and grown at 20° C./23° C., are treated at the 2-leaves stage by spraying with the aqueous suspension described above.
# After 24 hours, the plants are contaminated by spraying them with an aqueous suspension of Sphaerotheca fuliginea spores (100 000 spores per ml). The spores are collected from a contaminated plants The contaminated gerkhin plants are incubated at about 20° C./25° C. and at 60/70% relative humidity.
# (§6) Grading (% of efficacy) is carried out 21 days after the contamination, in comparison with the control plants.
# Botrytis cinerea [4] = test: Example 1: efficacy against Botrytis cinerea on gherkin plants, Compound 1 and mancozeb; conditions: grading 5 to 7 days after contamination
# Method: (§7) Gherkin plants (Petit vert de Paris variety) in starter cups, sown on a 50/50 peat soil-pozzolana substrate and grown at 18-20° C., are treated at the cotyledon Z11 stage by spraying with the aqueous suspension described above.
# as §3, §4
# Botrytis cinerea [5] = test: Example 8: efficacy against Botrytis cinerea on gherkin plants, Compound 1 and metalaxyl-M; conditions: grading 5 to 7 days after contamination
# Method: as §1, §2, §3, §4
# Botrytis cinerea [6] = test: Example 2: efficacy against Botrytis cinerea on gherkin plants, Compound 1 and propineb; conditions: grading 5 to 7 days after contamination
# Method: as §7, §3, §4
# Botrytis cinerea [7] = test: Example 5: efficacy against Botrytis cinerea on gherkin plants, Compound 1 and iprodione; conditions: grading 5 to 7 days after contamination
# Method: as §2, with “The formulated compounds are diluted with water to obtain the desired active material concentration. Gherkin” for “Gherkin”
# as §3, §4
# Botrytis cinerea [8] = test: Example 6: efficacy against Botrytis cinerea on gherkin plants, Compound 1 and fludioxonil
# Method: as §1, §2, §3, §4
# Botrytis cinerea [9] = test: Example 9: efficacy against Botrytis cinerea on gherkin plants, Compound 1 and propamocarb-HCl; conditions: grading 5 to 7 days after contamination
# Method: as §7, §3, §4
# Botrytis cinerea [10] = test: Example 10: efficacy against Botrytis cinerea on gherkin plants, Compound 1 and fosetyl-Al; conditions: grading 5 to 7 days after contamination
# Method: (§8) The formulated compounds are diluted with water to obtain the desired active material concentration.
# as §2, §3, §4
# Sphaerotheca fuliginea [11] = test: Example 11: efficacy against Sphaerotheca fuliginea on gherkin plants, Compound 1 and tolylfluanid; conditions: Podosphaera fuliginea, 504 h, grading 21 days after contamination
# Method: as §8
# as §2, with “(Vert petit” for “(Petit vert”, “20° C./23°” for “18-20°”, “2-leaves” for “cotyledon Z11”
# After 24 hours, the plants are contaminated by spraying them with an aqueous suspension of Sphaerotheca fuliginea spores (100,000 spores per ml). The spores are collected from a contaminated plants The contaminated gerkhin plants are incubated at about 20° C./25° C. and at 60/70% relative humidity.
# as §6
# Peronospora parasitica = test: Example 12: efficacy against Peronospora parasitica on cabbage plants, Compound 1 and Compound A; conditions: Hyaloperonospora parasitica, 120 h, grading 5 days after contamination
# Method: The active ingredient tested is prepared by potter homogenisation in a concentrated suspension type formulation at 100 g/l. This suspension is then diluted with water to obtain the desired active material concentration.
# Cabbage plants (Eminence variety) in starter cups, sown on a 50/50 peat soil-pozzolana substrate and grown at 18-20° C., are treated at the cotyledon stage by spraying with the aqueous suspension described above.
# as §5
# After 24 hours, the plants are contaminated by spraying them with an aqueous suspension of Peronospora parasitica spores (50,000 spores per ml). The spores are collected from infected plant.
# The contaminated cabbage plants are incubated for 5 days at 20° C., under a humid atmosphere.
# Grading is carried out 5 days after the contamination, in comparison with the control plants.
# [12] = tested on: Erysiphe graminis f. sp. tritici; test: Example 14: efficacy against Erysiphe graminis f. sp. tritici on wheat plants, Compound 1 and chlorothalonil; conditions: Blumeria graminis, grading 7 to 14 days after contamination
# Method: The formulated compounds are diluted with water to obtain the desired active material concentration
# Wheat plants (Audace variety) in starter cups, sown on 50/50 peat soil-pozzolana substrate and grown at 12° C., are treated at the 1-leaf stage (10 cm tall) by spraying with the aqueous suspension described above.
# as §5
# After 24 hours, the plants are contaminated by dusting them with Erysiphe graminis f. sp. tritici spores, the dusting being carried out using diseased plants.
# Grading is carried out 7 to 14 days after the contamination, in comparison with the control plants.
compound,measurement,setting,value
"COC(=O)C(C)N(C(=O)Cc1ccccc1)c1c(C)cccc1C (stereo not drawn) [Benalaxyl, benalaxyl, reference compound]",Emax at 111 ppm,Botrytis cinerea [1]; 111 ppm,7%
"O=C1c2ccccc2C(=O)N1SC(Cl)(Cl)Cl [Folpet, folpet, reference compound]",Emax at 333 ppm,Botrytis cinerea [2]; 333 ppm,0%
same,Emax at 1000 ppm,Botrytis cinerea [2]; 1000 ppm,0%
"O=C1C2CC=CCC2C(=O)N1SC(Cl)(Cl)Cl (stereo not drawn) [Captan, captan]",Emax at 125 ppm,Puccinia recondita,0%
same,Emax at 250 ppm,Puccinia recondita,0%
same,Emax at 500 ppm,Puccinia recondita; 500 ppm,10%
"Cc1ccc(C(C)NC(=O)[C@@H](NC(=O)OC(C)C)C(C)C)cc1 (stereo partly drawn) [Iprovalicarb, iprovalicarb, reference compound]",% Efficacy,Sphaerotheca fuliginea [3]; 111 ppm,50%
mancozeb [reference compound],% Efficacy,Botrytis cinerea [4]; 1000 ppm,0%
"COCC(=O)N(c1c(C)cccc1C)[C@H](C)C(=O)OC [Metalaxyl-M, metalaxyl-M, reference compound]",% Efficacy,Botrytis cinerea [5]; 111 ppm,0%
"O=C(NCCc1ncc(C(F)(F)F)cc1Cl)c1ccccc1C(F)(F)F [Compound 1, N-{2-[3-chloro-5-(trifluoromethyl)-2-pyridinyl]ethyl}-2-trifluoromethylbenzamide]",Emax at 37 ppm,"Botrytis cinerea [4]; Botrytis cinerea, 37 ppm",50%
same,Emax at 111 ppm,"Botrytis cinerea [4]; Botrytis cinerea, 111 ppm",70%
same,Emax at 37 ppm,"Botrytis cinerea [6]; Botrytis cinerea, 37 ppm",65%
same,Emax at 111 ppm,"Botrytis cinerea [6]; Botrytis cinerea, 111 ppm",87%
same,Emax at 125 ppm,Puccinia recondita,0%
same,Emax at 250 ppm,Puccinia recondita,10%
same,Emax at 37 ppm,Botrytis cinerea [2]; 37 ppm,50%
same,Emax at 111 ppm,Botrytis cinerea [2]; 111 ppm,70%
same,Emax at 37 ppm,Botrytis cinerea [7],0%
same,Emax at 12.3 ppm,"Botrytis cinerea [8]; 12.3 ppm, gherkin plants, grading 5 to 7 days after contamination",0%
same,Emax at 37 ppm,"Botrytis cinerea [8]; 37 ppm, gherkin plants, grading 5 to 7 days after contamination",38%
same,Emax at 37 ppm,Botrytis cinerea [1]; 37 ppm,78%
same,Emax at 37 ppm,"Botrytis cinerea [5]; Botrytis cinerea, 37 ppm",45%
same,Emax at 111 ppm,Botrytis cinerea [9]; 111 ppm,70%
same,Emax at 111 ppm,"Botrytis cinerea [10]; Botrytis cinerea, 111 ppm",70%
same,Emax at 4.1 ppm,Sphaerotheca fuliginea [11]; 4.1 ppm,69%
same,Emax at 12.3 ppm,Peronospora parasitica,0%
same,Emax at 12.3 ppm,"Sphaerotheca fuliginea [3]; Podosphaera fuliginea, 504 h, 12.3 ppm",65%
same,Emax at 250 g/ha,[12],30%
same,Emax at 500 g/ha,[12]; 500 g/ha,60%
"O=C(NCc1ncc(C(F)(F)F)cc1Cl)c1c(Cl)cccc1Cl [Compound A, 2,6-dichloro-N-{[3-chloro-5-(tri-fluoromethyl)-2-pyridinyl]methyl}benzamide, reference compound]",Emax at 12.3 ppm,Peronospora parasitica,40%
"CCCOC(=O)NCCCN(C)C [Popamocarb-HCl, propamocarb-HCl, reference compound]",Emax at 1000 ppm,Botrytis cinerea [9]; 1000 ppm,0%
"Cc1ccc(N(SC(F)(Cl)Cl)S(=O)(=O)N(C)C)cc1 [Tolylfluanid, tolylfluanid]",Emax at 12.3 ppm,Sphaerotheca fuliginea [11]; 12.3 ppm,0%
same,Emax at 37 ppm,Sphaerotheca fuliginea [11]; 37 ppm,50%
"CCO[PH](=O)O [Fosetyl-Al, fosetyl-Al, reference compound]",% Efficacy,Botrytis cinerea [10]; 1000 ppm,0%
"N#Cc1c(Cl)c(Cl)c(Cl)c(C#N)c1Cl [Chlorothalonil, chlorothalonil, reference compound]",Emax at 250 g/ha,[12],0%
"N#Cc1c[nH]cc1-c1cccc2c1OC(F)(F)O2 [Fludioxonil, fludioxonil, reference compound]",Emax at 4.1 ppm,Botrytis cinerea [8]; read-out: % Efficacy,0%
propineb [reference compound],% Efficacy,Botrytis cinerea [6]; 3000 ppm,0%
"CC(C)NC(=O)N1CC(=O)N(c2cc(Cl)cc(Cl)c2)C1=O [Iprodione, iprodione]",Emax at 37 ppm,Botrytis cinerea [7],0%
same,Emax at 111 ppm,Botrytis cinerea [7]; 111 ppm,90%
